Like-named read-outs stand apart in the source and are kept apart here.
Assays:
Alpha 2B [1] = target: Alpha 2B (Homo sapiens, UniProt P18089); assay: FLIPR assay, intracellular Ca2+ mobilization, alpha 2B; assay type: cell-based
Protocol: (§1) Cells are loaded into a plate reader with a Ca^2+ dye indicator and incubated with various compounds. This assay is adequate for monitoring the intracellular Ca^2+ mobilization from fluorescent readings to evaluate receptor agonists.

Alpha 2A = target: T1, Alpha 2A (Homo sapiens, UniProt P08913); assay: FLIPR assay, intracellular Ca2+ mobilization, alpha 2A; assay type: cell-based; conditions: for EC50: agonist, read-out: Alpha 2A Potency (EC50); for Alpha 2A relative efficacy compared to a standard full agonist: value in parentheses
T1 sequence (P08913 1-465): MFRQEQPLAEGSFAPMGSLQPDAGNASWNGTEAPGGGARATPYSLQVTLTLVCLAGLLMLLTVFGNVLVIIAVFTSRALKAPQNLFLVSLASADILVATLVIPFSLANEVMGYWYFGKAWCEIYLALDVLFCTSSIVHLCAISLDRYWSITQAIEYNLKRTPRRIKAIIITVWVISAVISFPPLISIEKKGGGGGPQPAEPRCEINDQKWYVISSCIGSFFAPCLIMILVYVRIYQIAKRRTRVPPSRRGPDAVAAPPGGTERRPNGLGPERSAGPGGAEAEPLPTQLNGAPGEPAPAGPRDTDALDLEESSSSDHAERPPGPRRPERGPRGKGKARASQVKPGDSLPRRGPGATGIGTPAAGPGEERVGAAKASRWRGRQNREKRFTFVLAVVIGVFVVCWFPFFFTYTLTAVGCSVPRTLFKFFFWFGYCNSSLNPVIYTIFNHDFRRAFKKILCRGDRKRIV
Protocol: The compounds described herein were tested for alpha adrenergic activity using a Fluorometric Imaging plate Reader (FLIPR) assay (Princen et al., 2003, Cytometry Part A. 51, pp. 35-45). Cells are loaded into a plate reader with a Ca^2+ dye indicator and incubated with various compounds. This assay is adequate for monitoring the intracellular Ca^2+ mobilization from fluorescent readings to evaluate receptor agonists. […] The compounds described herein activate alpha adrenergic receptors.

Alpha 2B [2] = target: T2, Alpha 2B (Homo sapiens, UniProt P18089); assay: FLIPR assay, intracellular Ca2+ mobilization, alpha 2B; assay type: cell-based; conditions: FLIPR; for EC50: agonist, read-out: Alpha 2B Potency (EC50); for Alpha 2B relative efficacy compared to a standard full agonist: value in parentheses
T2 sequence (P18089 1-450): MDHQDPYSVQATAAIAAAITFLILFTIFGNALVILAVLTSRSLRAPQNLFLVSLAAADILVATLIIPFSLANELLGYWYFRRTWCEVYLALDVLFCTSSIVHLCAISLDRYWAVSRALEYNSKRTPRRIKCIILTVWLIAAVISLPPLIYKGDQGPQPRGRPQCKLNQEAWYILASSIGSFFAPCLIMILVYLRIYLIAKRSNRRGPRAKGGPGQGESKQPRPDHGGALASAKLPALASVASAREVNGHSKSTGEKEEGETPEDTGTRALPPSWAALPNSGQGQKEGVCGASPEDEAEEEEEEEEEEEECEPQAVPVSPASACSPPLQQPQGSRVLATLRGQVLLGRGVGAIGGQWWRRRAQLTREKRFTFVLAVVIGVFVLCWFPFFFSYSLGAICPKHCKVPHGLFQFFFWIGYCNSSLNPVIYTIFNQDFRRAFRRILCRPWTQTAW
Protocol: as §1

Alpha 2C = target: T3, Alpha 2C (Homo sapiens, UniProt P18825); assay: FLIPR assay, intracellular Ca2+ mobilization, alpha 2C; assay type: cell-based; conditions: for EC50: agonist, read-out: Alpha 2C Potency (EC50); for Alpha 2C relative efficacy compared to a standard full agonist: value in parentheses
T3 sequence (P18825 1-462): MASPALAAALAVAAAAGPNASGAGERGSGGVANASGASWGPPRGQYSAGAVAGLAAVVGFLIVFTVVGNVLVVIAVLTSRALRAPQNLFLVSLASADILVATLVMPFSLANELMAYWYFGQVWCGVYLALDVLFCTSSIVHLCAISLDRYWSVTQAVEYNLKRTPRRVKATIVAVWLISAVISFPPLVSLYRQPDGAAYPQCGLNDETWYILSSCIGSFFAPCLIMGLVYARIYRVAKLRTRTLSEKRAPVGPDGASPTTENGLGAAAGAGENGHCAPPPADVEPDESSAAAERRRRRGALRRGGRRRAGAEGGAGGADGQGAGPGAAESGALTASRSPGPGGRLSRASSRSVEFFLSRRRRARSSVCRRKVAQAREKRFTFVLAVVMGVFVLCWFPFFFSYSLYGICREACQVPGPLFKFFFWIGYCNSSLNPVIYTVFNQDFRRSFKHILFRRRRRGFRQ
Protocol: as §1

[3] = system: Intraoccular Pressure (IOP); assay: In-vivo intraocular pressure compound screening; conditions: normotensive male Dutch-Belted rabbits, single 50 μl topical drop, 0.15% or 1.0%; for IOP lowering: IOP 0.5-8 h vs 0 h baseline
Protocol: The experimental animals used, were Normotensive male Dutch-Belted rabbits over 6 months in age (n=4/compound/dose screened). A single drop (50 μl) of the drug formulation, which yields 0.15% or 1.0% of the active metabolite was administered topically by pipette onto the right eye (treated eye) at approximately 0700 hours. Intraoccular Pressure (IOP) of the rabbits (treated and untreated eyes) was measured 0 hours before and at 0.5, 1, 2, 3, 4, 6 and 8 hours after topical eyedrop administration. IOP at the time of eyedrop administration (0 hours) was used as a baseline value. Prior to the tonometric measurements, 0.05% proparacaine (50 μl) was administered to each eye. Tonometric IOP measurements were obtained with a Mentor Pneumontonmeter. Additionally, all studies were masked. At least 1 week of wash-out time was allowed for each rabbit between dosings. All animals were examined for sedation, ocular irritation, and changes in pupil diameter throughout the course of the experiments. […] In this assay, Compound 10 lowered IOP about 35%.

In the case of `c1cc2c(cc1NC1=NCCC1)CCCC2`, the EC50 (Alpha 2B [1]) is reported as 293 nM.

`Clc1c(NC2=NCCC2)ccc2cccnc12` [Compound 9, 8-Chloro-N-(3,4-dihydro-2H-pyrrol-5-yl)quinolin-7-amine] was tested, and the EC50 (Alpha 2A) was 429 nM, the “Alpha 2A relative efficacy compared to a standard full agonist” value (shortened to “Alpha 2A relative efficacy”) (Alpha 2A) was “(1)” and the EC50 (Alpha 2B [2]) was 1050 nM. For the same molecule, the “Alpha 2B relative efficacy compared to a standard full agonist” value (“Alpha 2B relative efficacy” below) (Alpha 2B [2]) was “(0.38)”, the EC50 (Alpha 2C) was 218 nM and the “Alpha 2C relative efficacy compared to a standard full agonist” value (shortened to “Alpha 2C relative efficacy”) (Alpha 2C) was “(0.97)”. For the same molecule, the “IOP lowering” value [3] was “show potential in lowering IOP”.

With `Brc1c(NC2=NCCC2)ccc2[nH]cnc12` [Compound 10, 4-Bromo-N-(3,4-dihydro-2H-pyrrol-5-yl)-1H-benzimidazol-5-amine] the EC50 (Alpha 2A) was 3 nM, the “Alpha 2A relative efficacy” value (Alpha 2A) was “(1)” and the EC50 (Alpha 2B [2]) was 90 nM. For the same molecule, the “Alpha 2B relative efficacy” value (Alpha 2B [2]) was “(0.76)”, the EC50 (Alpha 2C) was 1.5 nM and the “Alpha 2C relative efficacy” value (Alpha 2C) was “(0.94)”. For the same molecule, the “IOP lowering” value [3] was “show potential in lowering IOP” and the IOP lowered ([3]; vs 0 h baseline) was “about 35%”.

For `Clc1c(NC2=NCCC2)ccc2[nH]cnc12` [Compound 11, 4-Chloro-N-(3,4-dihydro-2H-pyrrol-5-yl)-1H-benzimidazol-5-amine], the EC50 (Alpha 2A) was 216 nM, the “Alpha 2A relative efficacy” value (Alpha 2A) was “(0.98)” and the EC50 (Alpha 2B [2]) was 513 nM. For the same molecule, the “Alpha 2B relative efficacy” value (Alpha 2B [2]) was “(0.69)”, the EC50 (Alpha 2C) was 35 nM and the “Alpha 2C relative efficacy” value (Alpha 2C) was “(1)”. The “IOP lowering” value [3] was “show potential in lowering IOP”.

For `Cc1c(NC2=NCCC2)ccc2[nH]cnc12` [Compound 12, N-(3,4-dihydro-2H-pyrrol-5-yl)-4-methyl-1H-benzimidazol-5-amine], the EC50 (Alpha 2A) was 203 nM, the “Alpha 2A relative efficacy” value (Alpha 2A) was “(1)” and the EC50 (Alpha 2B [2]) was 510 nM. The “Alpha 2B relative efficacy” value (Alpha 2B [2]) was “(0.86)”, the EC50 (Alpha 2C) was 58 nM and the “Alpha 2C relative efficacy” value (Alpha 2C) was “(1)”. The “IOP lowering” value [3] was “show potential in lowering IOP”.

`c1cc(NC2=NCCC2)c2cc[nH]c2c1` [Compound 25, N-(3,4-Dihydro-2H-pyrrol-5-yl)-1H-indol-4-amine] was tested, and the EC50 (Alpha 2A) was 115 nM, the “Alpha 2A relative efficacy” value (Alpha 2A) was “(0.7)” and the EC50 (Alpha 2B [2]) was 152 nM. The “Alpha 2B relative efficacy” value (Alpha 2B [2]) was “(0.42)”, the EC50 (Alpha 2C) was less than 10 nM and the “Alpha 2C relative efficacy” value (Alpha 2C) was “(0.99)”.

In the case of `c1cc2cc(/N=C3\CCCN3)cnc2[nH]1` [Compound 26, N-[(2E)-Pyrrolidin-2-ylidene]-1H-pyrrolo[2,3-b]pyridin-5-amine], the EC50 (Alpha 2A) is reported as 118 nM, the “Alpha 2A relative efficacy” value (Alpha 2A) is reported as “(0.85)” and the EC50 (Alpha 2B [2]) is reported as 17 nM. For the same molecule, the “Alpha 2B relative efficacy” value (Alpha 2B [2]) was “(0.96)”, the EC50 (Alpha 2C) was 6 nM and the “Alpha 2C relative efficacy” value (Alpha 2C) was “(0.97)”.

In the case of `Cc1c(NC2=NCCC2)ccc2nccnc12` [Compound 27, N-(3,4-Dihydro-2H-pyrrol-5-yl)-5-methylquinoxalin-6-amine], the EC50 (Alpha 2A) is reported as 121 nM, the “Alpha 2A relative efficacy” value (Alpha 2A) is reported as “(0.89)” and the EC50 (Alpha 2C) is reported as 16 nM. The “Alpha 2C relative efficacy” value (Alpha 2C) was “(0.9)” and the “IOP lowering” value [3] was “show potential in lowering IOP”.

With `Cc1c(NC2=NCCC2)ccc2cccnc12` [Compound 29, N-(3,4-Dihydro-2H-pyrrol-5-yl)-8-methylquinolin-7-amine] the EC50 (Alpha 2A) was 6 nM, the “Alpha 2A relative efficacy” value (Alpha 2A) was “(0.98)” and the EC50 (Alpha 2B [2]) was 80 nM. The “Alpha 2B relative efficacy” value (Alpha 2B [2]) was “(0.2)”, the EC50 (Alpha 2C) was less than 1 nM and the “Alpha 2C relative efficacy” value (Alpha 2C) was “(1)”. The “IOP lowering” value [3] was “show potential in lowering IOP”.

`Brc1c(NC2=NCCC2)ccc2scnc12` [Compound 31, 4-Bromo-N-(3,4-dihydro-2H-pyrrol-5-yl)-1,3-benzothiazol-5-amine] was tested, and the EC50 (Alpha 2A) was 96 nM, the “Alpha 2A relative efficacy” value (Alpha 2A) was “(.98)” and the EC50 (Alpha 2B [2]) was 117 nM. For the same molecule, the “Alpha 2B relative efficacy” value (Alpha 2B [2]) was “(.76)”, the EC50 (Alpha 2C) was 25 nM and the “Alpha 2C relative efficacy” value (Alpha 2C) was “(.92)”.

For `Cc1c(NC2=NCCC2)ccc2c1NCCO2` [Compound 36, N-(3,4-Dihydro-2H-pyrrol-5-yl)-5-methyl-3,4-dihydro-2H-1,4-benzoxazin-6-amine], the EC50 (Alpha 2A) was 583 nM, the “Alpha 2A relative efficacy” value (Alpha 2A) was “(0.68)” and the EC50 (Alpha 2B [2]) was 579 nM. For the same molecule, the “Alpha 2B relative efficacy” value (Alpha 2B [2]) was “(0.77)”, the EC50 (Alpha 2C) was 327 nM and the “Alpha 2C relative efficacy” value (Alpha 2C) was “(0.87)”.

In the case of `Cc1cccc2c1CC[C@@H]2NC1=NCCC1` [Compound 37, N-[(1S)-4-Methyl-2,3-dihydro-1H-inden-1-yl]-3,4-dihydro-2H-pyrrol-5-amine], the EC50 (Alpha 2A) is reported as 272 nM, the “Alpha 2A relative efficacy” value (Alpha 2A) is reported as “(0.43)” and the EC50 (Alpha 2B [2]) is reported as 21 nM. The “Alpha 2B relative efficacy” value (Alpha 2B [2]) was “(0.9)”, the EC50 (Alpha 2C) was 58 nM and the “Alpha 2C relative efficacy” value (Alpha 2C) was “(0.94)”.
